**Q.** Which solubility (mole fraction) (in ethanol, 283.15 K) does the source give for `O=Cc1ccc2ccccc2c1` here?
**A.** 0.0161

**Q.** What about the solubility (mole fraction) (in ethanol, 288.15 K) of the same compound?
**A.** 0.0245

**Q.** And the solubility (mole fraction) (in ethanol, 293.15 K)?
**A.** 0.0377

**Q.** And the solubility (mole fraction) (in ethanol, 298.15 K)?
**A.** 0.0653

**Q.** And the solubility (mole fraction) (in ethanol, 303.15 K)?
**A.** 0.11

**Q.** What about the solubility (mole fraction) (in ethanol, 308.15 K) of the same compound?
**A.** 0.191

**Q.** And the solubility (mole fraction) (in ethanol, 313.15 K)?
**A.** 0.314

**Q.** And the solubility (mole fraction) (in isopropanol, 283.15 K)?
**A.** 0.0115

**Q.** What about the solubility (mole fraction) (in isopropanol, 288.15 K) of the same compound?
**A.** 0.0201

**Q.** And the solubility (mole fraction) (in isopropanol, 293.15 K)?
**A.** 0.0404

**Q.** What about the solubility (mole fraction) (in isopropanol, 298.15 K) of the same compound?
**A.** 0.0557

**Q.** What about the solubility (mole fraction) (in isopropanol, 303.15 K) of the same compound?
**A.** 0.0908

**Q.** What about the solubility (mole fraction) (in isopropanol, 308.15 K) of the same compound?
**A.** 0.144

**Q.** What about the solubility (mole fraction) (in isopropanol, 313.15 K) of the same compound?
**A.** 0.237

**Q.** And the solubility (mole fraction) (in methanol, 283.15 K)?
**A.** 0.00592

**Q.** And the solubility (mole fraction) (in methanol, 288.15 K)?
**A.** 0.00987

**Q.** What about the solubility (mole fraction) (in methanol, 293.15 K) of the same compound?
**A.** 0.0163

**Q.** What about the solubility (mole fraction) (in methanol, 298.15 K) of the same compound?
**A.** 0.0274

**Q.** And the solubility (mole fraction) (in methanol, 303.15 K)?
**A.** 0.0418

**Q.** And the solubility (mole fraction) (in methanol, 308.15 K)?
**A.** 0.0696

**Q.** And the solubility (mole fraction) (in methanol, 313.15 K)?
**A.** 0.119

**Q.** What about the solubility (mole fraction) (in n-butanol, 283.15 K) of the same compound?
**A.** 0.0195

**Q.** What about the solubility (mole fraction) (in n-butanol, 288.15 K) of the same compound?
**A.** 0.0281

**Q.** What about the solubility (mole fraction) (in n-butanol, 293.15 K) of the same compound?
**A.** 0.0425

**Q.** What about the solubility (mole fraction) (in n-butanol, 298.15 K) of the same compound?
**A.** 0.0561

**Q.** And the solubility (mole fraction) (in n-butanol, 303.15 K)?
**A.** 0.0758

**Q.** And the solubility (mole fraction) (in n-butanol, 308.15 K)?
**A.** 0.117

**Q.** And the solubility (mole fraction) (in n-butanol, 313.15 K)?
**A.** 0.164

**Q.** And the solubility (mole fraction) (in n-heptane, 283.15 K)?
**A.** 0.00944

**Q.** And the solubility (mole fraction) (in n-heptane, 288.15 K)?
**A.** 0.0128

**Q.** And the solubility (mole fraction) (in n-heptane, 293.15 K)?
**A.** 0.0164

**Q.** And the solubility (mole fraction) (in n-heptane, 298.15 K)?
**A.** 0.0192

**Q.** And the solubility (mole fraction) (in n-heptane, 303.15 K)?
**A.** 0.0255

**Q.** What about the solubility (mole fraction) (in n-heptane, 308.15 K) of the same compound?
**A.** 0.0345

**Q.** What about the solubility (mole fraction) (in n-heptane, 313.15 K) of the same compound?
**A.** 0.0415

**Q.** And the solubility (mole fraction) (in n-hexane, 283.15 K)?
**A.** 0.00727

**Q.** And the solubility (mole fraction) (in n-hexane, 288.15 K)?
**A.** 0.00923

**Q.** And the solubility (mole fraction) (in n-hexane, 293.15 K)?
**A.** 0.0128

**Q.** And the solubility (mole fraction) (in n-hexane, 298.15 K)?
**A.** 0.0159

**Q.** And the solubility (mole fraction) (in n-hexane, 303.15 K)?
**A.** 0.0189

**Q.** What about the solubility (mole fraction) (in n-hexane, 308.15 K) of the same compound?
**A.** 0.026

**Q.** What about the solubility (mole fraction) (in n-hexane, 313.15 K) of the same compound?
**A.** 0.0314
